The test system of one assay is infected PBMCs (VSV-G pseudotyped HIV virus VSV-G/pNLG1-P2A-ΔEnv). The experiment in a line: cells. Type of assay: cell-based, human. The following applies: Homo sapiens, PBMC, read-out: TACK EC50.
For `Cc1nc(C)c(Cn2cnc(C(F)(F)C(F)F)c(Oc3cc(C(F)F)cc(C#N)c3Cl)c2=O)c(=O)[nH]1` [Example 21, 2-chloro-5-(difluoromethyl)-3-((1-((2,4-dimethyl-6-oxo-1,6-dihydropyrimidin-5-yl)methyl)-6-oxo-4-(1,1,2,2-tetrafluoroethyl)-1,6-dihydropyrimidin-5-yl)oxy)benzonitrile], the EC50 came to 132 nM. As for `Cc1nc(C)c(Cn2cnc(C(F)(F)CF)c(Oc3cc(C(F)F)cc(C#N)c3C)c2=O)c(=O)[nH]1` [Example 5, 5-(difluoromethyl)-3-((1-((2,6-dimethyl-4-oxo-4,5-dihydropyrimidin-5-yl)methyl)-6-oxo-4-(1,1,2-trifluoroethyl)-1,6-dihydropyrimidin-5-yl)oxy)-2-methylbenzonitrile], the EC50 is 187 nM. With `Cc1nc(C)c(Cn2cnc(C(F)(F)C(F)F)c(Oc3cc(Cl)cc(C#N)c3F)c2=O)c(=O)[nH]1` [Example 81, 5-chloro-3-((1-((2,4-dimethyl-6-oxo-1,6-dihydropyrimidin-5-yl)methyl)-6-oxo-4-(1,1,2,2-tetrafluoroethyl)-1,6-dihydropyrimidin-5-yl)oxy)-2-fluorobenzonitrile], the EC50 came out at 156 nM. The same measure, in the same setting: to `Cc1nc(C)c(Cn2cnc(C(C)F)c(Oc3cc(Cl)cc(C#N)c3Cl)c2=O)c(=O)[nH]1` (single isomer, unassigned) [Example 34, (S) or (R)-2,5-dichloro-3-((1-((2,4-dimethyl-6-oxo-1,6-dihydropyrimidin-5-yl)methyl)-4-(1-fluoroethyl)-6-oxo-1,6-dihydropyrimidin-5-yl)oxy)benzonitrile] belongs 474 nM; to `Cc1nc(C)c(Cn2cnc(C(F)(F)C(F)(F)F)c(Oc3cc(Cl)cc(C#N)c3Cl)c2=O)c(=O)[nH]1` [Example 80, 2,5-dichloro-3-((1-((2,4-dimethyl-6-oxo-1,6-dihydropyrimidin-5-yl)methyl)-6-oxo-4-(perfluoroethyl)-1,6-dihydropyrimidin-5-yl)oxy)benzonitrile], 340 nM; to `Cc1ncc(Cn2cnc(C(F)(F)C(F)(F)F)c(Oc3cc(C(F)F)cc(C#N)c3C)c2=O)c(=O)[nH]1` [Example 67, 5-(difluoromethyl)-2-methyl-3-((1-((2-methyl-6-oxo-1,6-dihydropyrimidin-5-yl)methyl)-6-oxo-4-(perfluoroethyl)-1,6-dihydropyrimidin-5-yl)oxy)benzonitrile], 174 nM. In the case of `Cc1nc(C)c(Cn2cnc(C(F)(F)C(F)F)c(Oc3c(C)cc(C#N)cc3Cl)c2=O)c(=O)[nH]1` [Example 98, 3-chloro-4-((1-((2,4-dimethyl-6-oxo-1,6-dihydropyrimidin-5-yl)methyl)-6-oxo-4-(1,1,2,2-tetrafluoroethyl)-1,6-dihydropyrimidin-5-yl)oxy)-5-methylbenzonitrile], the EC50 is 183 nM.

The assay is the same for the next values; noted with them: read-out: TACK EC50.
Turning to `Cc1nc(C)c(Cn2cnc(C(C)F)c(Oc3cc(Cl)cc(C#N)c3F)c2=O)c(=O)[nH]1` (single isomer, unassigned) [Example 31], the EC50 was 397 nM.

The values are drawn from patent publication US12258329B2 (Merck Sharp & Dohme LLC, priority 2018, dated 2025).
